Measured values: ChEMBL document CHEMBL3991601, “The target landscape of clinical kinase drugs” (Science, 2017)
The source made the active and inactive calls.

Legend:
[1] = target: Protein kinase C theta type (Homo sapiens, UniProt Q04759)
Myosin-10 = Myosin-10 (Homo sapiens, UniProt P35580)
[2] = target: Mitogen-activated protein kinase 14 (Homo sapiens, UniProt Q16539)
Focal adhesion kinase 1 = Focal adhesion kinase 1 (Homo sapiens, UniProt Q05397)
[3] = target: Hepatocyte growth factor receptor (Homo sapiens, UniProt P08581)
[4] = target: T1, ATP-dependent RNA helicase DHX30 (Homo sapiens, UniProt Q7L2E3)
T1 sequence (Q7L2E3 whole entry): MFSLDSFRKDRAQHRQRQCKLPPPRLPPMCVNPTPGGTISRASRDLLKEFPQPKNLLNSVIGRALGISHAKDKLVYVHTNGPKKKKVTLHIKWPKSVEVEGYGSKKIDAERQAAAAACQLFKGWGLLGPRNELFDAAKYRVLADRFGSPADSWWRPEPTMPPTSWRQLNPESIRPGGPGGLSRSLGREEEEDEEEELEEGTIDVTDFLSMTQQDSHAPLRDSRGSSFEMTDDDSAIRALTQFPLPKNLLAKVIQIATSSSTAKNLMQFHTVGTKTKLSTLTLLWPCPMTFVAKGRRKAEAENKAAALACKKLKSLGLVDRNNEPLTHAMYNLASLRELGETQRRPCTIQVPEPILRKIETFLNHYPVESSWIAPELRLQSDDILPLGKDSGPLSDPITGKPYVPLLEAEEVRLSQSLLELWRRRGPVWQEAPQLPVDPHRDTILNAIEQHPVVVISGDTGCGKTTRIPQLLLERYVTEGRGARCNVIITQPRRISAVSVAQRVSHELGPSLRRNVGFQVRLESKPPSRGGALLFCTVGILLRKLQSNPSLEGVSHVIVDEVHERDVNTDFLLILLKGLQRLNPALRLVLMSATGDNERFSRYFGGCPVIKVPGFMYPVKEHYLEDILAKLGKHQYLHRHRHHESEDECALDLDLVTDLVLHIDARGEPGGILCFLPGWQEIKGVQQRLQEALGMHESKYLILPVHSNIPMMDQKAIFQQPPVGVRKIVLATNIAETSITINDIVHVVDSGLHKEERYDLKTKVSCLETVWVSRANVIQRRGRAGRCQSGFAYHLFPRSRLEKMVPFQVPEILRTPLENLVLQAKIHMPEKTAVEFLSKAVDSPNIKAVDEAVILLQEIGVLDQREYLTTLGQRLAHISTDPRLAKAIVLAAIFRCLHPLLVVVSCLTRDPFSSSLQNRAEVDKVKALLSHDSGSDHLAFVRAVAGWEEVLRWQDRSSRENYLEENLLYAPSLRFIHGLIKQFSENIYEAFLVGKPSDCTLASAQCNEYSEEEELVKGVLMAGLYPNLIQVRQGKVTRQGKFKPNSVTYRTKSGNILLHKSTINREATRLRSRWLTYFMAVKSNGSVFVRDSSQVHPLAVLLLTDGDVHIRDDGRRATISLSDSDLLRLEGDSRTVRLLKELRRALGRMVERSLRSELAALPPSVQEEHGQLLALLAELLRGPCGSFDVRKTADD

[5] = target: DNA topoisomerase 2-alpha (Homo sapiens, UniProt P11388)
Sequence of DNA topoisomerase 2-alpha (P11388 whole entry): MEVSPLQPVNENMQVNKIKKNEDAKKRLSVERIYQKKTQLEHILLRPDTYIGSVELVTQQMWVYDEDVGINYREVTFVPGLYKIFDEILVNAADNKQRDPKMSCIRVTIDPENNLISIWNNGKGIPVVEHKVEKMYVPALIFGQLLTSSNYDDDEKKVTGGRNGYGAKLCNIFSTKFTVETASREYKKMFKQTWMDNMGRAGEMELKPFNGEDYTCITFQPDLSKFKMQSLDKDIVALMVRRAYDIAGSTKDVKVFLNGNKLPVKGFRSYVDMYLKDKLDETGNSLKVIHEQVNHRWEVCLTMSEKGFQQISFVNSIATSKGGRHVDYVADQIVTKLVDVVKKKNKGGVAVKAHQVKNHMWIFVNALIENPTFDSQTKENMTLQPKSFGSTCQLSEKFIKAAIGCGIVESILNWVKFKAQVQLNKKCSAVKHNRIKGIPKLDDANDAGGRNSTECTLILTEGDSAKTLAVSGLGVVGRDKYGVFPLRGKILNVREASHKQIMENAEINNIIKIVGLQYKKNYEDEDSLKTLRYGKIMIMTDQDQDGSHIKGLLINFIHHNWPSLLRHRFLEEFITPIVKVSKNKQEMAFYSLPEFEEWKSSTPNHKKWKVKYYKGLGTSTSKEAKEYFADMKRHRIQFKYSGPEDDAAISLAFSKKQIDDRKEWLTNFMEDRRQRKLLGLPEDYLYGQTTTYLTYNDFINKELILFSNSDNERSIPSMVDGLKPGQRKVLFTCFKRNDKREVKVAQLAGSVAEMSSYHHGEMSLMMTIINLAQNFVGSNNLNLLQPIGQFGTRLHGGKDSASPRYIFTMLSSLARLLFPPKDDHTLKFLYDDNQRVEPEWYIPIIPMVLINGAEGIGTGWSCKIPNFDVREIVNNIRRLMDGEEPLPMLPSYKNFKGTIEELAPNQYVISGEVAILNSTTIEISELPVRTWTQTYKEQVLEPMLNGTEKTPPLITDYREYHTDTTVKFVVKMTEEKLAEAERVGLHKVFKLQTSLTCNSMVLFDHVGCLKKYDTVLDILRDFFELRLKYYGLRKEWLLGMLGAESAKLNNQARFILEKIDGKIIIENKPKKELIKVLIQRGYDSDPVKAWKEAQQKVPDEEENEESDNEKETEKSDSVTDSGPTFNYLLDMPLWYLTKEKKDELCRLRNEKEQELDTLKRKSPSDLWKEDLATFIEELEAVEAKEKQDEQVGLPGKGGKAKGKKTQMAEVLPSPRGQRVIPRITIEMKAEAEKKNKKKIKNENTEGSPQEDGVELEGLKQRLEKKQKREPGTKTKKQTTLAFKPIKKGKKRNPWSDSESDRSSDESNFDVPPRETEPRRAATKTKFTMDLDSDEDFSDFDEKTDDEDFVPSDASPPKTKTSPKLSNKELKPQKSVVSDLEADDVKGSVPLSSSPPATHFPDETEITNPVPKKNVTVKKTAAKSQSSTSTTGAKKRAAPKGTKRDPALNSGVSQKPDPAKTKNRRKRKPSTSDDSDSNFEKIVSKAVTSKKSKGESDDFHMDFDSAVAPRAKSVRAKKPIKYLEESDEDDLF

[6] = target: Cell division cycle 7-related protein kinase (Homo sapiens, UniProt O00311)
Sequence of Cell division cycle 7-related protein kinase (O00311 whole entry): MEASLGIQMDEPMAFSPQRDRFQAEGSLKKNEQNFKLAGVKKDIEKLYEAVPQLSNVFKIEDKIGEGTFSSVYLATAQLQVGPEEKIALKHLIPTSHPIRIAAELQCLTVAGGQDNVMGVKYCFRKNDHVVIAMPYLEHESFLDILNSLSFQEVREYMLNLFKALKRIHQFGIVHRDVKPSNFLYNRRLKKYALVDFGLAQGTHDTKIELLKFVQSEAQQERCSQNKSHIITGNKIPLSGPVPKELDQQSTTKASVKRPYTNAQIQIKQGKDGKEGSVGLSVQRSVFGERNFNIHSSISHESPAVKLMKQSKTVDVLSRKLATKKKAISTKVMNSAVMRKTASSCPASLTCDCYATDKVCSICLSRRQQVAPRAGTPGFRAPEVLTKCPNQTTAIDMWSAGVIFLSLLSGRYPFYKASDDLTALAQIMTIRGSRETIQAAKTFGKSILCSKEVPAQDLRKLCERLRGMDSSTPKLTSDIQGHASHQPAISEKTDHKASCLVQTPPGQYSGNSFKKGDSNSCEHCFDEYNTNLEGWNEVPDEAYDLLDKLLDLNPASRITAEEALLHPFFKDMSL

[7] = target: Epidermal growth factor receptor (Homo sapiens, UniProt P00533)
[8] = target: T2, Eukaryotic translation initiation factor 5B (Homo sapiens, UniProt O60841)
T2 sequence (O60841 whole entry): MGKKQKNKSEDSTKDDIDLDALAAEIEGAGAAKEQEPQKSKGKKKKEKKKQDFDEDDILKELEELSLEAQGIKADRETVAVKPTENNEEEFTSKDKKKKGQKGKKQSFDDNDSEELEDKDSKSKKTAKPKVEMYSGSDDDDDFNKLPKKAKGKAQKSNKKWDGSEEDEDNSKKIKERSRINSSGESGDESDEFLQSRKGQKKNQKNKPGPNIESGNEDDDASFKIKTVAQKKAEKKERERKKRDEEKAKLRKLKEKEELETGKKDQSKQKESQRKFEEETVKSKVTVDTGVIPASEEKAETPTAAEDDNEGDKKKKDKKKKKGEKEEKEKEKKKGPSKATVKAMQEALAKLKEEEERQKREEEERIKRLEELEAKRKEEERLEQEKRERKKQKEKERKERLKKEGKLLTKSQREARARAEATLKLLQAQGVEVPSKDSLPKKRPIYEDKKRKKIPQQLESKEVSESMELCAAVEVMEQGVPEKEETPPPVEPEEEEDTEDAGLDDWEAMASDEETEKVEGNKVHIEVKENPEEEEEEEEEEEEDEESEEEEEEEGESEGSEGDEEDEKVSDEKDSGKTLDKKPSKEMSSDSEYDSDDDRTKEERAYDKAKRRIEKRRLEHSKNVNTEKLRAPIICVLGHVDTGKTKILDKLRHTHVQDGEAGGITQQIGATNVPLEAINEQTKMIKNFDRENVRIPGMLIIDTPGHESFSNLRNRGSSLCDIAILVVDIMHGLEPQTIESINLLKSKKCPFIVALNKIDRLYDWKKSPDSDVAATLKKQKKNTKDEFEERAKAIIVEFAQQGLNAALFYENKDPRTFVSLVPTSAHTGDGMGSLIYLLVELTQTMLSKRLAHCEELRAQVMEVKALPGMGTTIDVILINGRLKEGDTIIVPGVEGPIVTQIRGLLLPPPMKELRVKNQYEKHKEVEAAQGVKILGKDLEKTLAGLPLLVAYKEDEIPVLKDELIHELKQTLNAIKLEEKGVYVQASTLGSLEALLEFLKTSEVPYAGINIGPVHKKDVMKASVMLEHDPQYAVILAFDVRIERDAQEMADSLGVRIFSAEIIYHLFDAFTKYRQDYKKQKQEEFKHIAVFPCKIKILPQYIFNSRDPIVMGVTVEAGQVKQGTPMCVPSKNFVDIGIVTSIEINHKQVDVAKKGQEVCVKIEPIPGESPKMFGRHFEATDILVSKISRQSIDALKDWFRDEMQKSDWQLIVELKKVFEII

[9] = target: Tyrosine-protein kinase Lck (Homo sapiens, UniProt P06239)
[10] = target: Dual specificity protein kinase CLK3 (Homo sapiens, UniProt P49761); assay type: subcellular, K-562, COLO 205, SK-N-BE(2) and MV-4-11, Cell lysate; settings: read-out: Kd apparent
Sequence of Dual specificity protein kinase CLK3 (P49761 whole entry): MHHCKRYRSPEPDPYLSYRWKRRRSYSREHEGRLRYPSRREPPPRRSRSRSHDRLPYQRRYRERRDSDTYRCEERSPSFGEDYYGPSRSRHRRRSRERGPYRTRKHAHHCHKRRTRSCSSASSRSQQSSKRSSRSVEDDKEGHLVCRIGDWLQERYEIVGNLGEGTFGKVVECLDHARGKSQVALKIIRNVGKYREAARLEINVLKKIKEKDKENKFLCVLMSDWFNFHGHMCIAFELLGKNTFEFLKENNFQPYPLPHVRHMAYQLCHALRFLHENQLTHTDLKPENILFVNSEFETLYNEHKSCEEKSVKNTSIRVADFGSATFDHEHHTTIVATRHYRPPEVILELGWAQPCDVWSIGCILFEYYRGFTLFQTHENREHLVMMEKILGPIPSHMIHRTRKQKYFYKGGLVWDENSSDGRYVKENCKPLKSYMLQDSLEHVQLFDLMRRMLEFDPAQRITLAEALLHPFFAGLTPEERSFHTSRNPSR

[11] = target: Serine/threonine-protein kinase 24 (Homo sapiens, UniProt Q9Y6E0)
Note: in the data inactive means no Kd found up to 30 µM.

Sequence of Myosin-10 (P35580 whole entry): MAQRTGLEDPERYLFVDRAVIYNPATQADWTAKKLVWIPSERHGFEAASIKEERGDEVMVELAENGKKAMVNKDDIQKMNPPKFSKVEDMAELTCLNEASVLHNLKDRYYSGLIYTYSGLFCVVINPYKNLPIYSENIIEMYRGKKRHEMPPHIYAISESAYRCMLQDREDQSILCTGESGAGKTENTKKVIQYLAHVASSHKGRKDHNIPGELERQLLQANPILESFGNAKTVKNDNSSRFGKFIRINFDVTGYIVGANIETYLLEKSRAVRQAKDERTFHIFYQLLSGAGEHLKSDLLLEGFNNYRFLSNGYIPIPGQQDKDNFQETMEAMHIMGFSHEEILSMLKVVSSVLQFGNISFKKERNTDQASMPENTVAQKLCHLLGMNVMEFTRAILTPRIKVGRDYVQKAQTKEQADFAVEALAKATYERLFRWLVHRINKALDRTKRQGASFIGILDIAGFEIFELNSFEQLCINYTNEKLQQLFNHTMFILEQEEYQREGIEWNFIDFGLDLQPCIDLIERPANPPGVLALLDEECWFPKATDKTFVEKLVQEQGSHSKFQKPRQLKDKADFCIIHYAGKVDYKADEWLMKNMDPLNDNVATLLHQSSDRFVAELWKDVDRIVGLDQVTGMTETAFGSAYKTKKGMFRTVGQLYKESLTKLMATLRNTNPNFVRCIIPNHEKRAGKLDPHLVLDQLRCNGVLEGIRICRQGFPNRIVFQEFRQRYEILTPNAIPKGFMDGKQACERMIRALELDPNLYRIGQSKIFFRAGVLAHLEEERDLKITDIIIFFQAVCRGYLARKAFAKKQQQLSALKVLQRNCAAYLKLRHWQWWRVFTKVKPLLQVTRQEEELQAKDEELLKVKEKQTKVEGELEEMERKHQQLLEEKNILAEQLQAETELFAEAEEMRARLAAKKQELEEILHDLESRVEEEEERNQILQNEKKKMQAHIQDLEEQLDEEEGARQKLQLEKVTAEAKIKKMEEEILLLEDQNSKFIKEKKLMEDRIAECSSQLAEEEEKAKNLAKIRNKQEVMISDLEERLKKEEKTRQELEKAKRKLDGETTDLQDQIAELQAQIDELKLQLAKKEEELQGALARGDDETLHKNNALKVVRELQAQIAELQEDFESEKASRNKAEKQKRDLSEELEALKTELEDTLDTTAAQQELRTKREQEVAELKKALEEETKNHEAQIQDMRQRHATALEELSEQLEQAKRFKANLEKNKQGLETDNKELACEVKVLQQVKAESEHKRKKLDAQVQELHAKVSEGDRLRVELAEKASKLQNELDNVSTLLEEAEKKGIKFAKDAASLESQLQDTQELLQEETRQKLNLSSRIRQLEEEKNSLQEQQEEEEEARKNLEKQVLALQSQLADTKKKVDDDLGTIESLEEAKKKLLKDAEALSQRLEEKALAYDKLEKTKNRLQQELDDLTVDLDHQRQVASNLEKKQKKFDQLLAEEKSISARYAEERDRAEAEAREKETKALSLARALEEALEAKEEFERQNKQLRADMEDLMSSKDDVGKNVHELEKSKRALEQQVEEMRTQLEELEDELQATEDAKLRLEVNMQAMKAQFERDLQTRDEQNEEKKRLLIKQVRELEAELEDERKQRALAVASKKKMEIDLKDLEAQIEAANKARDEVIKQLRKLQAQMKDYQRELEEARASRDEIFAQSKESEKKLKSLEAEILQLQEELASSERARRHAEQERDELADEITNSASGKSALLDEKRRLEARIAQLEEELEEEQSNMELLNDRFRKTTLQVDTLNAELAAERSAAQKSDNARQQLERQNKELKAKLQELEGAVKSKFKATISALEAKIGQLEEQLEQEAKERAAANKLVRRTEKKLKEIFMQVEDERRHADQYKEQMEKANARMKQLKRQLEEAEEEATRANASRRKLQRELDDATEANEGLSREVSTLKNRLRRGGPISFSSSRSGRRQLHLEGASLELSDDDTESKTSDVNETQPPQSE
Sequence of Mitogen-activated protein kinase 14 (Q16539 whole entry): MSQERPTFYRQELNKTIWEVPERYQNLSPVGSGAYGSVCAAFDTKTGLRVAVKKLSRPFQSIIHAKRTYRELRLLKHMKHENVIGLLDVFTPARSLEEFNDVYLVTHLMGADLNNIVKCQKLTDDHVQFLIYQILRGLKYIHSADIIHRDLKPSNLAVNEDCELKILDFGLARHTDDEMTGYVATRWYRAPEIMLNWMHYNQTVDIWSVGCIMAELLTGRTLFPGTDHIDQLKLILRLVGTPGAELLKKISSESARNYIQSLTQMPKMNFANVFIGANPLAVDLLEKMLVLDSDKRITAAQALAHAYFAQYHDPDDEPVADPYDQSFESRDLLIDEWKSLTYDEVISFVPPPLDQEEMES

Row | Compound | Kd [1] | Kd (Myosin-10) | Kd [2] | Kd (Focal adhesion kinase 1) | Kd [3] | Kd [4] | Kd [5] | Kd [6] | Kd [7] | Kd [8] | Kd [9] | Kd [10] | Kd [11]
1 | O=C(Nc1ccc(OC(F)(F)F)cc1)c1sccc1NCc1ccnc2ccccc12 [OSI-930] | > 30 µM (inactive) | > 30 µM (inactive) | > 30 µM (inactive) | > 30 µM (inactive) | > 30 µM (inactive) | > 30 µM (inactive) | > 30 µM (inactive) | > 30 µM (inactive) | > 30 µM (inactive) | > 30 µM (inactive) | > 30 µM (inactive) | > 30 µM (inactive) | –
2 | CCc1cc2c(cc1N1CCC(N3CCOCC3)CC1)C(C)(C)c1[nH]c3cc(C#N)ccc3c1C2=O [ALECTINIB] | > 30 µM (inactive) | > 30 µM (inactive) | > 30 µM (inactive) | > 30 µM (inactive) | > 30 µM (inactive) | > 30 µM (inactive) | > 30 µM (inactive) | > 30 µM (inactive) | – | > 30 µM (inactive) | > 30 µM (inactive) | 1.4 µM (active) | –
3 | CN(c1ncccc1CNc1nc(Nc2ccc3c(c2)CC(=O)N3)ncc1C(F)(F)F)S(C)(=O)=O [PF-00562271] | – | > 30 µM (inactive) | – | – | – | – | – | – | – | > 30 µM (inactive) | – | > 30 µM (inactive) | –
4 | CNC(=O)c1cccc(-c2ccc3c(N4CCOC[C@@H]4C)nc(N4CCOC[C@@H]4C)nc3n2)c1 [VISTUSERTIB] | > 30 µM (inactive) | > 30 µM (inactive) | > 30 µM (inactive) | > 30 µM (inactive) | > 30 µM (inactive) | – | – | > 30 µM (inactive) | > 30 µM (inactive) | > 30 µM (inactive) | > 30 µM (inactive) | > 30 µM (inactive) | –
5 | C=CCn1c(=O)c2cnc(Nc3ccc(N4CCN(C)CC4)cc3)nc2n1-c1cccc(C(C)(C)O)n1 [ADAVOSERTIB] | – | – | – | – | – | > 30 µM (inactive) | > 30 µM (inactive) | > 30 µM (inactive) | > 30 µM (inactive) | > 30 µM (inactive) | – | > 30 µM (inactive) | –
6 | Cn1c(=O)c(F)c(Nc2ccc(I)cc2F)c2c(=O)n(C[C@@H](O)CO)cnc21 [TAK-733] | > 30 µM (inactive) | > 30 µM (inactive) | > 30 µM (inactive) | > 30 µM (inactive) | > 30 µM (inactive) | > 30 µM (inactive) | > 30 µM (inactive) | – | > 30 µM (inactive) | > 30 µM (inactive) | > 30 µM (inactive) | > 30 µM (inactive) | > 30 µM (inactive)
7 | O=C(NOC[C@H](O)CO)c1ccc(F)c(F)c1Nc1ccc(I)cc1F [MIRDAMETINIB] | > 30 µM (inactive) | > 30 µM (inactive) | – | > 30 µM (inactive) | > 30 µM (inactive) | > 30 µM (inactive) | > 30 µM (inactive) | – | > 30 µM (inactive) | > 30 µM (inactive) | > 30 µM (inactive) | > 30 µM (inactive) | > 30 µM (inactive)
8 | O=C(O)c1ccc2c(c1)nc(Nc1cccc(Cl)c1)c1ccncc12 [SILMITASERTIB] | – | – | > 30 µM (inactive) | > 30 µM (inactive) | > 30 µM (inactive) | – | – | – | > 30 µM (inactive) | – | > 30 µM (inactive) | 0.01 µM (active) | > 30 µM (inactive)
9 | COc1cc2ncnc(Nc3ccc(F)c(Cl)c3)c2cc1NC(=O)/C=C/CN1CCCCC1 [DACOMITINIB ANHYDROUS] | > 30 µM (inactive) | – | > 30 µM (inactive) | > 30 µM (inactive) | > 30 µM (inactive) | > 30 µM (inactive) | – | > 30 µM (inactive) | – | > 30 µM (inactive) | > 30 µM (inactive) | > 30 µM (inactive) | –
10 | C=CC(=O)Nc1cc(Nc2nccc(-c3cn(C)c4ccccc34)n2)c(OC)cc1N(C)CCN(C)C [OSIMERTINIB] | > 30 µM (inactive) | > 30 µM (inactive) | > 30 µM (inactive) | > 30 µM (inactive) | – | > 30 µM (inactive) | > 30 µM (inactive) | – | – | > 30 µM (inactive) | > 30 µM (inactive) | > 30 µM (inactive) | –
11 | COc1ccc2c(OCc3nnc4ccc(-c5ccccc5)nn34)ccnc2c1 [AMG-208] | > 30 µM (inactive) | > 30 µM (inactive) | > 30 µM (inactive) | > 30 µM (inactive) | 0.028 µM (active) | – | > 30 µM (inactive) | – | > 30 µM (inactive) | > 30 µM (inactive) | > 30 µM (inactive) | > 30 µM (inactive) | > 30 µM (inactive)
12 | O=S(=O)(c1cccc2cnccc12)N1CCCNCC1 [FASUDIL] | – | > 30 µM (inactive) | – | – | – | > 30 µM (inactive) | > 30 µM (inactive) | > 30 µM (inactive) | – | > 30 µM (inactive) | – | > 30 µM (inactive) | –
13 | CCN(CCCOc1ccc2c(Nc3cc(CC(=O)Nc4cccc(F)c4)n[nH]3)ncnc2c1)CCOP(=O)(O)O [BARASERTIB] | – | – | – | – | – | – | > 30 µM (inactive) | – | – | > 30 µM (inactive) | – | > 30 µM (inactive) | > 30 µM (inactive)
14 | O=S(=O)(c1cccc2c(O)nccc12)N1CCCNCC1 [HYDROXYFASUDIL] | > 30 µM (inactive) | > 30 µM (inactive) | – | – | > 30 µM (inactive) | – | > 30 µM (inactive) | – | – | > 30 µM (inactive) | – | > 30 µM (inactive) | > 30 µM (inactive)
15 | C[C@]1(O)C[C@@H](c2nc(-c3ccc4ccc(-c5ccccc5)nc4c3)c3c(N)nccn32)C1 [LINSITINIB] | > 30 µM (inactive) | > 30 µM (inactive) | – | – | – | > 30 µM (inactive) | – | > 30 µM (inactive) | – | > 30 µM (inactive) | – | > 30 µM (inactive) | –
